Measured values as given in patent US11433087B2, “Anti-tumor compound with high CD169 affinity, method thereof, and use thereof” (Xiamen Nuokangde Biological Technology Co., Ltd., priority 2017, dated 2022).

Assays:
[1] = system: human malignant glioma cells (U87); experiment: Toxicity in cells (counting dead cells, cell survival rate); format: cell-based; conditions: U87, different concentrations 0-100 μmol, 24 hours; FIG. 4
Protocol: Culturing human malignant glioma cells (U87) in the constant temperature incubator containing 5% CO2 at 37° C., and a seventh medium of the human malignant glioma cells is DMEM containing 10% fetal bovine serum;
Transferring the human malignant glioma cells to a confocal cell culture dish, culturing to a density of 50%, removing the seventh medium, adding an eighth medium comprising TCC-Neu5Ac of different concentrations from 0 to 100 μmol (100 μM), and further culturing for 24 hours; and
Removing the eighth medium comprising TCC-Neu5Ac, washing carefully with PBS for three times, adding a ninth medium, and counting dead cells of the human malignant glioma cells.
Counting results of the dead cells are shown in FIG. 4, wherein abscissa represents different concentrations of TCC Neu5Ac in the eight medium, and ordinate represents a cell survival rate of the human malignant glioma cells. […] Therefore, the anti-tumor compound with high CD169 affinity of the present disclosure has extremely low toxicity in the cells and has potential ability for human tumor treatment.

[2] = system: B16F10 cells; experiment: Phagocytic effects of macrophages (BMDM) on tumor cells, lactate dehydrogenase cytotoxicity test kit; format: cell-based, mouse; conditions: BMDM and B16F10 cells 5:1; compared with control group medium added with Neu5Ac; FIG. 5
Protocol: Taking out bone marrow of 10 week old mice, adding with a solution of potassium ammonium chloride (ACK), and then culturing cells of the bone marrow in an Iscove's modified dulbecco medium (IMDM) comprising 10% (volume ratio) fetal bovine serum (FBS) and 10 ng/mL macrophage […] stimulating factor to obtain bone marrow derived macrophages (BMDM). Culturing BMDM and B16F10 cells of a ratio of 5:1 respectively in an experimental group medium and a control group medium. Adding TCC-Neu5Ac to the experimental group medium, adding Neu5Ac of the same volume to the control group medium, detecting by Lactate dehydrogenase cytotoxicity test kit, selecting a 490 nm absorption peak in a microplate reader, and converting to phagocytic killing efficiency.

[3] = system: B16F10 cells; experiment: Anti-tumor effects in tumor-bearing mice injected with the compound; format: in vivo, mice B6 (C57BL/6); conditions: subcutaneous B16F10 in C57BL/6 mice; tail vein injection of 100 mL PBS, 100 μmol, every two days, 15 days; versus 100 μmol natural sialic acid; FIG. 6-9
Protocol: Culturing B16F10 cells in a 10 cm cell culture dish to a density of 80%;
Digesting with 2 mL tyrisin for 90 seconds, neutralizing with 2 mL medium, centrifuging under 300 g for 3 minutes, rinsing with PBS repeatedly, centrifuging once to remove any remaining medium, and adding PBS to resuspend and count an amount of the B16F10 cells;
Injecting subcutaneously 1 million of the B16F10 cells into mice B6 (C57BL/6) for tumor planting, and then injecting […] PBS comprising the anti-tumor compound of the present disclosure with a concentration of 100 μmol from a tail vein of mice every two days as an experimental group 1;
Injecting PBS of the same volume comprising 100 μmol natural sialic acid as a control group 1, and the other conditions of the control group 1 are the same as the experimental group 1; and
After 15 days, removing hair from tumor areas of the mice, taking pictures (as shown in FIG. 6 and FIG. 7), taking out tumors from the mice, and taking pictures for analysis.

[4] = system: B16F10 cells; experiment: Anti-tumor effects in tumor-bearing mice orally administrated with the compound; format: in vivo, B6 mice (C57BL/6); conditions: subcutaneous B16F10 in C57BL/6 mice; oral 200 μL aqueous solution, 100 μmol, daily, 15 days; versus natural sialic acid; FIG. 10-13
Protocol: Culturing B16F10 cells in a 10 cm cell culture dish to a density of 80%, digesting with 2 mL tyrisin for 90 seconds, neutralizing with 2 mL medium, centrifuging under 300 g for 3 minutes, rinsing with PBS repeatedly, centrifuging once to remove any residual medium, adding PBS to resuspend and count an amount of the B16F10 cells, and injecting subcutaneously 1 million of the B16F10 cells into the of B6 mice (C57BL/6) for tumor planting;
Feeding 200 μL of an aqueous solution comprising the 100 μmol of the anti-tumor compound with high CD169 affinity of the present disclosure daily as an experimental group 2;
Feeding water solution with the same volume comprising natural sialic acid as a control group 2; and
After 15 days, removing hair from tumor areas of the B6 mice, taking pictures, taking out tumors from the B6 mice, and taking pictures for analysis.

[5] = system: B16F10 cells; experiment: Tumor metastasis analysis model in mice; format: in vivo, B6 mice (C57BL/6); conditions: B16F10 injected from tail veins in C57BL/6 mice; 200 μL, 100 μmol, tail vein every two days, 15 days; versus 100 μmol natural sialic acid (Neu5Ac); FIG. 14
Protocol: Culturing B16F10 cells in a 10 cm cell culture dish to a density of 80%, digesting with 2 mL tyrisin for 90 seconds, neutralizing with 2 mL medium, centrifuging under 300 g for 3 minutes, rinsing with PBS repeatedly, centrifuging once to remove any residual medium, and adding PBS to resuspend and count an amount of the B16F10 cells.
Injecting 1 million of the B16F10 cells into B6 mice (C57BL/6) from tail veins for preparing a tumor metastasis analysis model. Then, injecting 200 μL of an aqueous solution comprising the 100 μmol of the anti-tumor compound with high CD169 affinity of the present disclosure every two days from tail veins as an experimental group 3, and injecting water solution with the same volume comprising 100 μmol of natural sialic acid (Neu5Ac) as a control group 3. After 15 days, removing hair from tumor areas of the B6 mice and taking pictures. Then, taking out tumors from the B6 mice and taking pictures for analysis. An ordinate position of a black solid circle indicates a number of the tumors transferred to lungs of a mouse of the experimental group 3. An ordinate position of one black solid square indicates a number of the tumors transferred to lungs of a mouse of the control group 3. It can be seen from FIG. 14 that the number of the tumors transferred to the lungs in the experimental group 3 is far lower than that in the control group 3. […]

SMILES: CC(=O)N[C@@H]1C(O)C[C@](O)(C(=O)O)OC1C(O)C(O)CNC(=O)c1cc2c(s1)-c1ccccc1OC2 (some centres unmarked) [TCC-Neu5Ac, 9-benzopyranothiophene-n-acetylneuraminic acid monosaccharide]
- cell survival rate of the human malignant glioma cells [1]: does not differ much
- killing rate of phagocytes to tumors [2]: significantly higher
- sizes of the tumors [3]: significantly smaller
- sizes of the tumors [4]: significantly smaller
- number of the tumors transferred to the lungs [5]: far lower
